The results in this text go back to patent US11352345B2, “Cyclohexyl acid pyrazole azoles as LPA antagonists” (BRISTOL-MYERS SQUIBB COMPANY, priority 2017, dated 2022).

A word on the IC50: it is the concentration at which inhibition is half-maximal.

Structures can show the parent of a compound that is named as a salt.

The target in this assay is T1, human LPA1 (Homo sapiens, UniProt Q92633).
T1 construct: expressed in transfected cells; host or cells: Chinese hamster ovary (CHO) cells
T1 sequence (Q92633 whole entry): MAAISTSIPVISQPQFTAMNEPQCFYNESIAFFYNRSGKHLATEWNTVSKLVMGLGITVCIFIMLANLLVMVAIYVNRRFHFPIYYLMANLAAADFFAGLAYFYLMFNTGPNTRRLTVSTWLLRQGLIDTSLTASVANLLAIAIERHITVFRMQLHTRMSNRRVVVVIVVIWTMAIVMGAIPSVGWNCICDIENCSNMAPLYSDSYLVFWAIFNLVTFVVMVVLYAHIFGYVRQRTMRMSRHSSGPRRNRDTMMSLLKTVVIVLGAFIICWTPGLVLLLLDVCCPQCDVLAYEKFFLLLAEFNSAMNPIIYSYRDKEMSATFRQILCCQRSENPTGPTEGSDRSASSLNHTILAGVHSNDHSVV
Nature of the assay: LPA1 functional antagonist assay (calcium flux). The class given is cell-based. The following applies: Chinese hamster ovary cells overexpressing human LPA1; calcium flux induced by 10 nM LPA; read-out: hLPA1 IC50. Here is the method: The effectiveness of compounds of the present invention as LPA1 inhibitors can be determined in an LPA1 functional antagonist assay as follows:
Chinese hamster ovary cells overexpressing human LPA1 were plated overnight (15,000 cells/well) in poly-D-lysine coated 384-well microplates (Greiner bio-one, Cat #781946) in DMEM/F12 medium (Gibco, Cat #11039). Following overnight culture, cells were loaded with calcium indicator dye (AAT Bioquest Inc, Cat #34601) for 30 minutes at 37° C. The cells were then equilibrated to room temperature for 30 minutes before the assay. Test compounds solubilized in DMSO were transferred to 384 well non-binding surface plates (Corning, Cat #3575) using the Labcyte Echo acoustic dispense and diluted with assay buffer [1×HBSS with calcium/magnesium (Gibco Cat #14025-092), 20 mM HEPES (Gibco Cat #15630-080) and 0.1% fatty acid free BSA (Sigma Cat #A9205)] to a final concentration of 0.5% DMSO. Diluted compounds were added to the cells by FDSS6000 (Hamamatsu) at final concentrations ranging from 0.08 nM to 5 μM. and were then incubated for 20 min at room temperature at which time LPA (Avanti Polar Lipids Cat #857130C) was added at final concentrations of 10 nM to stimulate the cells.
The compound IC50 value was defined as the concentration of test compound which inhibited 50% of the calcium flux induced by LPA alone. IC50 values were determined by fitting data to a 4-parameter logistic equation (GraphPad Prism, San Diego Calif.).
(A change in cytosolic calcium serves as a functional read-out for many receptors and channels.)
On to `Cc1nc(-c2cnn(C)c2CNc2cnn(-c3ccccc3)n2)ncc1O[C@H]1CCC[C@H](C(=O)O)C1` [Example 1, (1S,3S)-3-((4-methyl-2-(1-methyl-5-(((2-phenyl-2H-1,2,3-triazol-4-yl)amino)methyl)-1H-pyrazol-4-yl)pyrimidin-5-yl)oxy)cyclohexane-1-carboxylicacid], for which the IC50 is 35 nM.
The figure for `Cc1nc(-c2cnn(C)c2CNc2nc(C(C)C)ns2)ncc1O[C@H]1CCC[C@H](C(=O)O)C1` [Example 2, (1S,3S)-3-((2-(5-(((3-isopropyl-1,2,4-thiadiazol-5-yl)amino)methyl)-1-methyl-1H-pyrazol-4-yl)-4-methylpyrimidin-5-yl)oxy)cyclohexane-1-carboxylic acid] is 1860 nM.
The value for `CCCc1nsc(Nc2c(-c3ncc(O[C@H]4CCC[C@H](C(=O)O)C4)c(C)n3)cnn2C)n1` [Example 3, (1S,3S)-3-((4-methyl-2-(1-methyl-5-((3-propyl-1,2,4-thiadiazol-5-yl)amino)-1H-pyrazol-4-yl)pyrimidin-5-yl)oxy)cyclohexane-1-carboxylic acid] was 437 nM.
The value for `Cc1nc(-c2cnn(C)c2CNc2noc(CCC(C)C)n2)ncc1O[C@H]1CCC[C@H](C(=O)O)C1` [Example 4, (1S,3S)-3-((2-(5-(((5-isopentyl-1,2,4-oxadiazol-3-yl)amino)methyl)-1-methyl-1H-pyrazol-4-yl)-4-methylpyrimidin-5-yl)oxy)cyclohexane-1-carboxylic acid, bis TFA salt] was 10 nM; that for `Cc1nc(-c2cnn(C)c2Nc2nc(C3CC3)ns2)ncc1O[C@H]1CCC[C@H](C(=O)O)C1` [Example 5] was 341 nM.
Consider `CCCCc1nc(NCc2c(-c3ncc(O[C@H]4CCC[C@H](C(=O)O)C4)c(C)n3)cnn2C)no1` [Example 6], for which the IC50 is 31 nM.
For `Cc1nc(-c2cnn(C)c2CNc2noc(CC3CCC3)n2)ncc1O[C@H]1CCC[C@H](C(=O)O)C1` [Example 7], the IC50 worked out at 9 nM.
The figure for `Cc1nc(-c2cnn(C)c2CNc2ncn(-c3ccccc3)n2)ncc1O[C@H]1CCC[C@H](C(=O)O)C1` [Example 8] is 91 nM; for `Cc1nc(-c2cnn(C)c2Cn2cc(CC3CC3)nn2)ncc1O[C@H]1CCC[C@H](C(=O)O)C1` [Example 9, (1S,3S)-3-((2-(5-((4-(cyclopropylmethyl)-1H-1,2,3-triazol-1-yl)methyl)-1-methyl-1H-pyrazol-4-yl)-4-methylpyrimidin-5-yl)oxy)cyclohexane-1-carboxylic acid] it is 636 nM.
Take `CCc1nc(-c2cnn(C)c2Cn2cc(Cc3ccccc3)nn2)ncc1O[C@H]1CCC[C@H](C(=O)O)C1` [Example 10]: the half-maximal inhibitory concentration (IC50) is 26 nM.
The value for `CCCCc1cn(Cc2c(-c3ncc(O[C@H]4CCC[C@H](C(=O)O)C4)c(CC)n3)cnn2C)nn1` [Example 11] was 399 nM; that for `CCc1nc(-c2cnn(C)c2Cn2cc(CC3CC3)nn2)ncc1O[C@H]1CCC[C@H](C(=O)O)C1` [Example 12] was 230 nM.
